In ChEMBL document CHEMBL3044871, “Importance of some classes of molecular descriptors on classification of antitumor acridinones using factor analysis” (2012) one finds Activity data, which are given here for 20 molecules.

One experiment has as its system P388. The experiment can be described thus: Antitumor activity against Mus musculus (mouse) P388 cells xenografted in Mus musculus (mouse) assessed as increase in life span at 25 mg/kg relative to control. Type of experiment: functional.
In the case of `CN(C)CCCNc1ccc2nnn3c4ccc(O)cc4c(=O)c1c23`, the Activity is recorded as 165%.

As for `CN(C)CCNc1ccc2nnn3c4ccc(O)cc4c(=O)c1c23`, the Activity stood at 102%.

`CN(C)CCN(C)c1ccc2nnn3c4ccc(O)cc4c(=O)c1c23`: the Activity was found to be 10%.

Another experiment has as its system P388. Put plainly: Antitumor activity against Mus musculus (mouse) P388 cells xenografted in Mus musculus (mouse) assessed as increase in life span relative to control. Type of experiment: functional. Set-up: concentration or dose not given beside the values.
In the case of `CN(C)CCNc1ccc2ncn3c4ccccc4c(=O)c1c23`, the Activity was 90%.

Turning to `CCN(CC)CCNc1ccc2ncn3c4ccc(C(C)(C)C)cc4c(=O)c1c23`, the Activity was 0%.

In the case of `CCN(CC)CCNc1ccc2ncn3c4cc(O)ccc4c(=O)c1c23`, the Activity is given as 27%.

Regarding `CCN(CC)CCCCCNc1ccc2ncn3c4ccc(C)cc4c(=O)c1c23`, the Activity worked out at 20%.

Take `CN(C)CCCNc1ccc2ncn3c4ccc(O)cc4c(=O)c1c23`: the Activity was found to be 120%.

As to `CCN(CC)CCNc1ccc2nc(C)n3c4ccc(O)cc4c(=O)c1c23`, the Activity was 185%.

For the molecule `CCN(CC)CCNc1ccc2ncn3c4ccc(O)cc4c(=O)c1c23` [C-1311], the Activity came out at 93%.

With `CN(C)CCCNc1ccc2ncn3c4ccccc4c(=O)c1c23`, the Activity is 25%.

With `CN(C)CCNc1ccc2ncn3c4ccc(O)cc4c(=O)c1c23`, the Activity amounted to 110%.

As to `CN(C)CCCCCNc1ccc2ncn3c4ccc(O)cc4c(=O)c1c23`, the Activity came to 85%.

For `CCN(CC)CCNc1ccc2ncn3c4ccccc4c(=O)c1c23`, the Activity came to 55%.

For the molecule `CCNCCNc1ccc2nnn3c4ccc(O)cc4c(=O)c1c23`, the Activity turned out to be 78%.

For the molecule `CN(C)CCCCCNc1ccc2ncn3c4ccccc4c(=O)c1c23`, the Activity is recorded as 10%.

Consider `CCN(CC)CCNc1ccc2ncn3c4ccc(OC)cc4c(=O)c1c23`, for which the Activity was determined as 96%.

`CN(C)CCNc1ccc2nnn3c4ccc(C(C)(C)C)cc4c(=O)c1c23`: the Activity is given as 0%.

For the next experiment, the system named is P388. Put plainly: Antitumor activity against Mus musculus (mouse) P388 cells xenografted in Mus musculus (mouse) assessed as increase in life span at 100 mg/kg relative to control. Type of experiment: functional.
Take `CN(C)CCNc1ccc2nnn3c4ccccc4c(=O)c1c23`: the Activity came out at 77%.

On to `Cc1ccc2c(c1)c(=O)c1c(NCCCN(C)C)ccc3nnn2c31`, for which the Activity stood at 18%.
